Measurements published in patent US6458764B1, “GRF analogs with increased biological potency” (Theratechnologies Inc., priority 1995, dated 2002).
Where no end group is shown, it is not given here. The star is where a group is joined. Hexanoyl = CCCCCC(=O)*

Columns and labels:
serum IGF-I [1] = experiment: Comparative effects of GRF analogs on IGF-I levels in pigs (Example II, D-IGF-I, FIG. 1); type: in vivo, pigs (Landrace x Yorkshire); settings: 20 μg/kg 2×/day S.C., days 1 to 5, n=8 pigs per group
Procedure: This was a 5-day treatment, twice a day S.C. administration of one single dose of each test article vs saline. This experiment was conducted to compare the efficacy of (Aminohexanoyl)0 hGRF (1-29) NH2, (Hexylformiate)0 hGRF (1-29) NH2, (Hexenoyl trans-2)0 hGRF (1-29) NH2, (Hexenoyl trans-3)0 hGRF (1-29) NH2 and (Muconoyl)0 hGRF (1-29) NH2 to that of(Hexanoyl)0 hGRF (1-29) NH2.
ADMINISTRATION: Two daily subcutaneous injections.
TEST SYSTEM: Landrace x Yorkshire pigs.
ANIMAL DESCRIPTION: Fifty six (56) growing barrows pigs weighing 35 kg at the time of purchase.
DESIGN: Fifty six (56) pigs were randomly distributed into 7 experimental groups (n=8 pigs per group). Each group received two daily S.C. administration of the following treatments (volume: 3 ml, S.C. injection).
Treatments were administered from day 1 to 5. Immediately before the injections, one blood sample were collected from each animal, and additional blood samples were collected on day 6.
Blood samples were allowed to clot, serum was harvested by centrifugation and submitted to IGF-I assays.
Results are shown in FIG. 1 as D-IGF-I, which is defined as the increase in IGF-I levels from day 1 (pretreatment levels) to day 6 (after 5 days of GRFs administrations).

serum IGF-I [2] = experiment: Repeated S.C. administrations of GRF analogs, serum IGF-I levels in pigs (Example I, Experiments 1-3; radioimmunoassay); type: in vivo, pigs (Landrace x Yorkshire); settings: for serum IGF-I, Day 1 (pretreatment): pretreatment baseline; for increase in IGF-I levels: P<0.05
Procedure: The objective of these experiments was to assess the potential of the GRF analogs as anabolic agents.
Therefore, in order to investigate the anabolic potency of the fatty acid-GRF analogs, their ability to increase IGF-I levels following repeated S.C. administrations in pig was evaluated.
26 Landrace x Yorkshire castrated male pigs (40-45 kg BW) were randomly distributed into 4 experimental groups:
Each animal was injected BID (twice a day) subcutaneously for 4 consecutive days. One blood sample was collected each morning prior to the first injection of the day, and the day after the last injection, for IGF-I measurement.
40 Landrace x Yorkshire castrated male pigs (40-45 kg BW) were randomly distributed into 5 experimental groups:
Each animal was injected BID (twice a day) subcutaneously for 5 consecutive days. One blood sample was collected each morning prior to the first injection of the day, and the day after the last injection, for IGF-I measurement.
48 Landrace x Yorkshire castrated male pigs (40-45 kg BW) were randomly distributed into 6 experimental groups:
The selected doses were 30 μg/kg for hGRF(1-44)NH2 analogs and 20 μg/kg for hGRF(1-29)NH2 analogs, which give identical doses on a molar basis. Each animal was injected BID (twice a day) subcutaneously for 5 consecutive days. One blood sample was collected each morning prior to the first injection of the day, and the day after the last injection, for IGF-I measurements.
IGF-I levels were measured in pig serum by double antibody radioimmunoassay after formic acid-acetone extraction, as previously described (Abribat T. et al., 1993, J. Endocrinol., 39:583-589). The extraction prior to radioimmunoassay is a necessary step to remove endogenous IGF-binding proteins.
In both experiments, the IGF-I data were analyzed by a two way repeated measure analysis of variance, with day and treatment (GRF analog) as sources of variation. Multiple comparison procedures were there run (Student-Newman Keuls method). A P<0.05 was considered as statistically significant.

[3] = Experiment 1, 20 μg/kg BID SC × 4 days, mean of 6 to 7
[4] = Experiment 3, 20 μg/kg BID SC × 5 days, mean of 8
[5] = Experiment 3, 30 μg/kg BID SC × 5 days, mean of 8

Substance: (Aminohexanoyl)0 hGRF (1-29) NH2 (aminohexanoyl-YADAIFTNSYRKVLGQLSARKLLQDIMSR-NH2; UniProt P01286 32-60, looked up, fragment) [aminohexanoyl-hGRF(1-29)NH2]
- D-IGF-I: increase in IGF-I levels from day 1 (pretreatment) to day 6 (serum IGF-I [1]): did not

Substance: (Hexenoyl trans-2)0 hGRF (1-29) NH2 ({trans‑2‑hexenoyl}-YADAIFTNSYRKVLGQLSARKLLQDIMSR-NH2; UniProt P01286 32-60, looked up, fragment) [hexenoyl trans2-hGRF(1-29)NH2]
- D-IGF-I: increase in IGF-I levels from day 1 (pretreatment) to day 6 (serum IGF-I [1]): significantly increased IGF-I levels

Substance: (Hexylformiate)0 hGRF (1-29) NH2 (hexylformiate-YADAIFTNSYRKVLGQLSARKLLQDIMSR-NH2; UniProt P01286 32-60, looked up, fragment) [hexylformiate-hGRF(1-29)NH2]
- D-IGF-I: increase in IGF-I levels from day 1 (pretreatment) to day 6 (serum IGF-I [1]): significantly increased IGF-I levels

Substance: (Muconoyl)0 hGRF (1-29) NH2 (muconoyl-YADAIFTNSYRKVLGQLSARKLLQDIMSR-NH2; UniProt P01286 32-60, looked up, fragment) [muconoyl-hGRF(1-29)NH2]
- D-IGF-I: increase in IGF-I levels from day 1 (pretreatment) to day 6 (serum IGF-I [1]): did not

Substance: [butyryl^0] hGRF(1-29)NH2 (YADAIFTNSYRKVLGQLSARKLLQDIMSR; HELM PEPTIDE1{[CCCC(=O)[*:2]].Y.A.D.A.I.F.T.N.S.Y.R.K.V.L.G.Q.L.S.A.R.K.L.L.Q.D.I.M.S.R.[am]}$$$$V2.0; SMILES CCCC(=O)N[C@@H](Cc1ccc(O)cc1)C(=O)N[C@@H](C)C(=O)N[C@@H](CC(=O)O)C(=O)N[C@@H](C)C(=O)N[C@H](C(=O)N[C@@H](Cc1ccccc1)C(=O)N[C@H](C(=O)N[C@@H](CC(N)=O)C(=O)N[C@@H](CO)C(=O)N[C@@H](Cc1ccc(O)cc1)C(=O)N[C@@H](CCCNC(=N)N)C(=O)N[C@@H](CCCCN)C(=O)N[C@H](C(=O)N[C@@H](CC(C)C)C(=O)NCC(=O)N[C@@H](CCC(N)=O)C(=O)N[C@@H](CC(C)C)C(=O)N[C@@H](CO)C(=O)N[C@@H](C)C(=O)N[C@@H](CCCNC(=N)N)C(=O)N[C@@H](CCCCN)C(=O)N[C@@H](CC(C)C)C(=O)N[C@@H](CC(C)C)C(=O)N[C@@H](CCC(N)=O)C(=O)N[C@@H](CC(=O)O)C(=O)N[C@H](C(=O)N[C@@H](CCSC)C(=O)N[C@@H](CO)C(=O)N[C@@H](CCCNC(=N)N)C(N)=O)[C@@H](C)CC)C(C)C)[C@@H](C)O)[C@@H](C)CC; UniProt P01286 32-60, looked up, fragment)
- serum IGF-I, Day 2 (serum IGF-I [2]; [3]): 281 ng/mL
- serum IGF-I, Day 3 (serum IGF-I [2]; [3]): 302 ng/mL
- serum IGF-I, Day 4 (serum IGF-I [2]; [3]): 289 ng/mL
- serum IGF-I, Day 5 (serum IGF-I [2]; [3]): 293 ng/mL
- serum IGF-I, Day 1 (pretreatment) (serum IGF-I [2]; [3]): 278 ng/mL

Substance: [hexanoyl^0, 30]hGRF(1-29)NH2 (Hexanoyl-YADAIFTNSYRKVLGQLSARKLLQDIMSR-NH2; also: hexanoyl at position 30; UniProt P01286 32-60, looked up, fragment) [[hexanoyl^0,30] hGRF(1-29)NH2]
- serum IGF-I, Day 2 (serum IGF-I [2]; [4]): 212 ng/mL
- serum IGF-I, Day 3 (serum IGF-I [2]; [4]): 253 ng/mL
- serum IGF-I, Day 4 (serum IGF-I [2]; [4]): 271 ng/mL
- serum IGF-I, Day 5 (serum IGF-I [2]; [4]): 277 ng/mL
- serum IGF-I, Day 6 (serum IGF-I [2]; [4]): 294 ng/mL
- serum IGF-I, Day 1 (pretreatment) (serum IGF-I [2]; [4]): 205 ng/mL
- increase in IGF-I levels (serum IGF-I [2]; Experiment 3, 20 μg/kg BID SC, day 4): 32%
- increase in IGF-I levels (serum IGF-I [2]; Experiment 3, 20 μg/kg BID SC, day 5): 35%
- increase in IGF-I levels (serum IGF-I [2]; Experiment 3, 20 μg/kg BID SC, day 6): 43%

Substance: [hexanoyl^0]hGRF(1-44)NH2 (Hexanoyl-YADAIFTNSYRKVLGQLSARKLLQDIMSRQQGESNQERGARARL-NH2; UniProt P01286 32-75, looked up) [[hexanoyl^0] hGRF(1-44)NH2]
- serum IGF-I, Day 2 (serum IGF-I [2]; [5]): 290 ng/mL
- serum IGF-I, Day 3 (serum IGF-I [2]; [5]): 340 ng/mL
- serum IGF-I, Day 4 (serum IGF-I [2]; [5]): 372 ng/mL
- serum IGF-I, Day 5 (serum IGF-I [2]; [5]): 361 ng/mL
- serum IGF-I, Day 6 (serum IGF-I [2]; [5]): 388 ng/mL
- serum IGF-I, Day 1 (pretreatment) (serum IGF-I [2]; [5]): 241 ng/mL
- increase in IGF-I levels (serum IGF-I [2]; Experiment 3, 30 μg/kg BID SC, day 3): 41%
- increase in IGF-I levels (serum IGF-I [2]; Experiment 3, 30 μg/kg BID SC, day 4): 54%
- increase in IGF-I levels (serum IGF-I [2]; Experiment 3, 30 μg/kg BID SC, day 5): 50%
- increase in IGF-I levels (serum IGF-I [2]; Experiment 3, 30 μg/kg BID SC, day 6): 61%

Substance: [hexanoyl^30]hGRF(1-29)NH2 (YADAIFTNSYRKVLGQLSARKLLQDIMSR-NH2; also: hexanoyl at position 30; UniProt P01286 32-60, looked up, fragment) [[hexanoyl^30] hGRF(1-29)NH2, hexanoyl function anchored at the C-terminal region of hGRF(1-29)NH2]
- serum IGF-I, Day 2 (serum IGF-I [2]; [4]): 270 ng/mL
- serum IGF-I, Day 3 (serum IGF-I [2]; [4]): 287 ng/mL
- serum IGF-I, Day 4 (serum IGF-I [2]; [4]): 278 ng/mL
- serum IGF-I, Day 5 (serum IGF-I [2]; [4]): 276 ng/mL
- serum IGF-I, Day 6 (serum IGF-I [2]; [4]): 327 ng/mL
- serum IGF-I, Day 1 (pretreatment) (serum IGF-I [2]; [4]): 297 ng/mL

Substance: [octanoyl^0] hGRF(1-29)NH2 (YADAIFTNSYRKVLGQLSARKLLQDIMSR; HELM PEPTIDE1{[CCCCCCCC(=O)[*:2]].Y.A.D.A.I.F.T.N.S.Y.R.K.V.L.G.Q.L.S.A.R.K.L.L.Q.D.I.M.S.R.[am]}$$$$V2.0; SMILES CCCCCCCC(=O)N[C@@H](Cc1ccc(O)cc1)C(=O)N[C@@H](C)C(=O)N[C@@H](CC(=O)O)C(=O)N[C@@H](C)C(=O)N[C@H](C(=O)N[C@@H](Cc1ccccc1)C(=O)N[C@H](C(=O)N[C@@H](CC(N)=O)C(=O)N[C@@H](CO)C(=O)N[C@@H](Cc1ccc(O)cc1)C(=O)N[C@@H](CCCNC(=N)N)C(=O)N[C@@H](CCCCN)C(=O)N[C@H](C(=O)N[C@@H](CC(C)C)C(=O)NCC(=O)N[C@@H](CCC(N)=O)C(=O)N[C@@H](CC(C)C)C(=O)N[C@@H](CO)C(=O)N[C@@H](C)C(=O)N[C@@H](CCCNC(=N)N)C(=O)N[C@@H](CCCCN)C(=O)N[C@@H](CC(C)C)C(=O)N[C@@H](CC(C)C)C(=O)N[C@@H](CCC(N)=O)C(=O)N[C@@H](CC(=O)O)C(=O)N[C@H](C(=O)N[C@@H](CCSC)C(=O)N[C@@H](CO)C(=O)N[C@@H](CCCNC(=N)N)C(N)=O)[C@@H](C)CC)C(C)C)[C@@H](C)O)[C@@H](C)CC; UniProt P01286 32-60, looked up, fragment)
- serum IGF-I, Day 2 (serum IGF-I [2]; [3]): 287 ng/mL
- serum IGF-I, Day 3 (serum IGF-I [2]; [3]): 301 ng/mL
- serum IGF-I, Day 4 (serum IGF-I [2]; [3]): 301 ng/mL
- serum IGF-I, Day 5 (serum IGF-I [2]; [3]): 318 ng/mL
- serum IGF-I, Day 1 (pretreatment) (serum IGF-I [2]; [3]): 316 ng/mL
